Data on 21 molecules can be found in patent US8796258B2, “Cyclic azabenzimidazole derivatives useful as anti-diabetic agents” (Merck Sharp & Dohme Corp., priority 2011, dated 2014).

Assay [1] deals with ob/ob and db/db mice. As to conditions: cited from earlier work.
The test system of assay [2] is obese Zucker (fa/fa) rats. As to conditions: 7 week administration; cited from earlier work.
In assay [3] the test system is rats displaying characteristics of insulin resistance syndrome. As to conditions: rat, in vivo; cited from earlier work.
For assay [4], the target named is T1, recombinant human AMPK complex 1 (containing α1β1γ1) (Homo sapiens, UniProt Q13131+Q9Y478).
T1 construct: made in house; host or cells: Spodoptera frugiperda Sf21 cells, baculovirus (pBacPak9 clones, triple infection)
Put plainly: AMPKSAMSF in vitro AMPK activation assay. The class given is biochemical. Conditions: recombinant human AMPK complex 1 (α1β1γ1); for Emax: 10-point titration, read-out: % Maximum AMP Activation of human AMPK Complex 1; for pEC50: inflection point reflecting 50% of the maximum activation. The procedure:
The recombinant human AMPK complex 1 (containing α1β1γ1) was obtained from baculovirus expression system. Recombinant viruses were generated by cotransfection of AMPK/pBacPak9 clones with Baculogold baculovirus DNA (Pharmingen) in spodoptera frugiperda 21 cells according to the manufacturer's instructions. Each round of virus amplification was performed for 5 days in Grace's medium containing 10% serum. Virus that had been subjected to three rounds of amplification was used for all protein production procedures. To express the AMPK complex, sf21 cells were adapted to serum free medium (SF900 II, Invitrogen) by sequential dilution from serum containing stocks into SF9001I medium and maintained in shaker flasks at 90 rpm at 27° C. The recombinant AMPK enzyme complex was produced by triple infection, one recombinant virus for each of the subunits, in sf21 cells under serum free conditions. Cells were infected in log phase, 1×10^6 cells/ml, at a multiplicity of infection of […]. Cells were harvested by centrifugation at 10,000×g for 15 minutes after 72 hours of infection with viruses. The insect cell pellet from 2 liters of culture was resuspended in 50 ml lysis buffer (20 mM Tris-HCl, 50 mM NaCl, 50 mM NaF, 30 mM Na PPi, 0.25 M sucrose, 10 mM ZnCl2, 2 mM DTT, 0.4 mg/ml digitonin) and subjected to two cycles of freeze-thaw lysis in a dry-ice ethanol bath. Insoluble material was removed by centrifugation at 10,000×g and the supernatant was fractionated with use of polyethylene glycol (PEG). The protein fraction precipitating between 2.5 and 6% PEG was used for further purification using a Blue-Sepharose step (Zhou et al, J. Clin. Invest. 108, 1167-1174, 2001).
The in vitro AMPK activation assay is performed in a volume of 30 μl in a 384-well plate. Enzyme reactions were assembled in the microtiter plate by adding 15 μl of 2× enzyme in assay buffer (20 mM HEPES, pH 7.3, 5 mM MgCl2, 3 mM DTT, 0.01% Brij 35 and CamK Kinase, to activate AMPK) to wells which contained either DMSO or compound. The reaction was initiated with the addition of 15 μl 2× substrate mixture containing 200 μM ATP, and 3.0 μM fluorescently labeled SAMS (5-FAM-HMRSAMSGLHLVKRR-COOH) in assay buffer. After 45-minute incubation at 25° C., the reaction was stopped by the addition of 70 μl stop buffer (100 mM HEPES, pH 7.3, 40 mM EDTA, 0.015% Brij 35). Phosphorylated 5-FAM SAMS product is assessed using a Caliper EZ Reader LabChip microfluidics reader. Product conversion is determined by calculating the peak heights of the substrate and product and reporting the product/(product+substrate) peak ratio. The 10-point titration data were expressed as % maximum AMP activation. The results were plotted using 4 parameter fit and the inflection point reflecting 50% of the maximum activation was reported as the EC50.

pEC50: −log10 of the molar value.

T1 sequence (Q13131 whole entry): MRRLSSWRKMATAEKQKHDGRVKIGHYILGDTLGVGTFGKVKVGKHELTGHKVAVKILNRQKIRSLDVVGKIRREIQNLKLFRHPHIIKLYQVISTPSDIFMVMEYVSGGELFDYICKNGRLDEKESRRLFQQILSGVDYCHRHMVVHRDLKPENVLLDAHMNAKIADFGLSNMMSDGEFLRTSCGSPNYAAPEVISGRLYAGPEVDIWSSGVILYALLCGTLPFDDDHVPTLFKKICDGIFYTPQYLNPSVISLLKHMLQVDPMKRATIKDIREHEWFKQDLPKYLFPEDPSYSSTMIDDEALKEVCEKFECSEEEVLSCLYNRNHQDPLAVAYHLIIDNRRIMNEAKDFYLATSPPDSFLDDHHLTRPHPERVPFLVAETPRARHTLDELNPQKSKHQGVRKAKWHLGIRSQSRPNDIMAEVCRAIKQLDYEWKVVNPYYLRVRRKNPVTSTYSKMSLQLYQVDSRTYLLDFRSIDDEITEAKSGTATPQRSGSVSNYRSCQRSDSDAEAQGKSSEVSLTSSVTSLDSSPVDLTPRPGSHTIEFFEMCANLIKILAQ
T1 sequence (Q9Y478 whole entry): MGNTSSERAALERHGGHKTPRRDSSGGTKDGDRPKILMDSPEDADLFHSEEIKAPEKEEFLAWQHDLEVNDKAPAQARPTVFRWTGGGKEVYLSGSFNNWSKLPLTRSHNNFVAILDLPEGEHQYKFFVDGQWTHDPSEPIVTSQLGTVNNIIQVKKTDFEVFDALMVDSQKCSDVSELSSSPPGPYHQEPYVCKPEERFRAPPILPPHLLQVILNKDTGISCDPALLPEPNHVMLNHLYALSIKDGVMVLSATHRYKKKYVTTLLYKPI
T1 sequence (P54619 whole entry partner): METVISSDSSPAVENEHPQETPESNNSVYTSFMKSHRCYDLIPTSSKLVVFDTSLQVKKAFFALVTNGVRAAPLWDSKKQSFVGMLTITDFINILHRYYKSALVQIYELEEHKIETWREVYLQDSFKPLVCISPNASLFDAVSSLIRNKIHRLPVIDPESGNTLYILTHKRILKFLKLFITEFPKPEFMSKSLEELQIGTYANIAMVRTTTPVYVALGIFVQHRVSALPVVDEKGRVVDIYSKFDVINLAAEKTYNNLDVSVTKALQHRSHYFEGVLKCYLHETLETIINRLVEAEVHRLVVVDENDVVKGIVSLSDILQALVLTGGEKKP

Turning to `NC(=O)c1ncn([C@@H]2O[C@H](CO)[C@@H](O)[C@H]2O)c1N` [AICAR], in assay [1] (insulin-resistant diabetic (ob/ob) mice), the glucose homeostasis result is reported as “improvement in glucose homeostasis”. Moreover, the blood glucose reduction in assay [1] (ob/ob and db/db mice, following 8 weeks of administration) is listed as 35%. Also, in assay [2], the HDL cholesterol result was “increase in HDL cholesterol”; the “glucose metabolism as assessed by an oral glucose tolerance test” value is “normalization of glucose metabolism”; the “plasma triglycerides and free fatty acids” value is “reduction in plasma triglycerides and free fatty acids”. In addition, the blood pressure entry in assay [3] was “reduction of blood pressure”.

What is called pEC50 is the EC50 on a negative log10 scale, so that one unit is a factor of ten. Regarding `Cc1ccc(Oc2nc3nc(-c4ccc(N5CCCC5)cc4)c(Cl)cc3[nH]2)cc1C(=O)O` [Example 3], in assay [4], the Emax turned out to be 681% and the pEC50 was 9.00.

Regarding `O=C(O)[C@H]1CC[C@H](Oc2nc3nc(-c4ccc(-c5ccccc5)cc4)c(Cl)cc3[nH]2)CC1` [Example 29], in assay [4], the Emax is 798% and the pEC50 was 8.15.

Take `O=C(O)C1CCC(Oc2nc3nc(-c4ccc(N5CCCC5)cc4)c(Cl)cc3[nH]2)CC1` (centres unmarked) [Example 30]: the Emax in assay [4] was determined as 852%.

As to `O=C(O)[C@H]1CC[C@H](Oc2nc3nc(-c4ccc(N5CCCC5)cc4)c(Cl)cc3[nH]2)CC1` [Example 30], in assay [4], the pEC50 is 7.62.

With `CS(=O)(=O)c1ccc(-c2ccc(-c3nc4nc(O[C@H]5CC[C@H](C(=O)O)CC5)[nH]c4cc3Cl)cc2)cc1` [Example 79, Trans-4-({6-chloro-5-[4′-(methylsulfonyl)biphenyl-4-yl]-1H-imidazo[4,5-b]pyridin-2-yl}oxy)cyclohexanecarboxylic acid], in assay [4], the Emax came out at 661% and the pEC50 is 8.30.

As for `OCC1(CO)CC(Oc2nc3nc(-c4ccc(-c5ccccc5)cc4)c(Cl)cc3[nH]2)C1` [Example 111], in assay [4], the Emax is 813% and the negative-log EC50 (pEC50) was 7.55.

`CC(C)(O)[C@H]1C[C@@H](Oc2nc3nc(-c4ccc(-c5ccc(S(C)(=O)=O)cc5)cc4)c(Cl)cc3[nH]2)C1` [Example 130, 2-[cis-3-({6-chloro-5-[4′-(methylsulfonyl)biphenyl-4-yl]-1H-imidazo[4,5-b]pyridin-2-yl}oxy)cyclobutyl]propan-2-ol]: in assay [4], the Emax came to 440% and the pEC50 is 7.33.

For `OC[C@H]1OC[C@H](Oc2nc3nc(-c4ccc(-c5ccccc5)cc4)c(Cl)cc3[nH]2)C[C@@H]1O` [Example 140, (2R3S,5R)-5-[[6-chloro-5-(4-phenylphenyl)-1H-imidazo[4,5-b]pyridin-2-yl]oxy]-2-(hydroxymethyl)tetrahydropyran-3-ol], in assay [4], the Emax stood at 668% and the negative logarithm of the EC50 (pEC50) is 7.42.

As to `O[C@@H]1CO[C@H]2[C@@H]1OC[C@H]2Oc1nc2nc(-c3ccc(-c4ccccc4)cc3)c(Cl)cc2[nH]1` [Example 159, 1,4:3,6-dianhydro-2-O-[5-(biphenyl-4-yl)-6-chloro-1H-imidazo[4,5-b]pyridin-2-yl]-D-mannitol], in assay [4], the Emax was 373% and the pEC50 was 8.40.

In the case of `O[C@@H]1CO[C@H]2[C@@H]1OC[C@H]2Oc1nc2nc(-c3ccc(-c4ccc(-n5cccn5)cc4)cc3)c(Cl)cc2[nH]1` [Example 163, (3R,3aR,6R,6aR)-6-[[6-chloro-5-[4-(4-pyrazol-1-ylphenyl)phenyl]-1H-imidazo[4,5-b]pyridin-2-yl]oxy]-2,3,3a,5,6,6a-hexahydrofuro[3,2-b]furan-3-ol], in assay [4], the Emax stood at 362% and the pEC50 is 9.52.

Turning to `CC(C)(O)Cn1cc2c(n1)CN(c1ccc(-c3nc4nc(O[C@@H]5CO[C@H]6[C@@H]5OC[C@H]6O)[nH]c4cc3Cl)cc1)C2` [Example 171, (3R,3aR,6R,6aR)-6-[[6-chloro-5-[4-[2-(2-hydroxy-2-methyl-propyl)-4,6-dihydropyrrolo[3,4-c]pyrazol-5-yl]phenyl]-1H-imidazo[4,5-b]pyridin-2-yl]oxy]-2,3,3a,5,6,6a-hexahydrofuro[3,2-b]furan-3-ol], in assay [4], the Emax was determined as 252% and the pEC50 was 9.00.

With `CC(C)(F)Cn1cc2c(n1)CN(c1ccc(-c3nc4nc(O[C@@H]5CO[C@H]6[C@@H]5OC[C@H]6O)[nH]c4cc3Cl)cc1)C2` [Example 172], in assay [4], the Emax came to 249% and the pEC50 is 8.70.

`O[C@@H]1CO[C@H]2[C@@H]1OC[C@H]2Oc1nc2nc(-c3ccc(-n4cc5c(n4)CNC5)cc3)c(Cl)cc2[nH]1` [Example 177]: in assay [4], the Emax turned out to be 368% and the pEC50 was 7.74.

`O=S(=O)(NC1CC1)n1cc2c(n1)CN(c1ccc(-c3nc4nc(O[C@@H]5CO[C@H]6[C@@H]5OC[C@H]6O)[nH]c4cc3Cl)cc1)C2` [Example 178]: in assay [4], the Emax is 223% and the pEC50 was 9.00.

`O[C@@H]1CO[C@H]2[C@@H]1OC[C@H]2Oc1nc2nc(-c3ccc(-c4ccc(-n5cccn5)nc4)cc3)c(Cl)cc2[nH]1` [Example 179, (3R,3aR,6R,6aR)-6-[[6-chloro-5-[4-(6-pyrazol-1-yl-3-pyridyl)phenyl]-1H-imidazo[4,5-b]pyridin-2-yl]oxy]-2,3,3a,5,6,6a-hexahydrofuro[3,2-b]furan-3-ol]: in assay [4], the Emax was determined as 292% and the pEC50 was 9.05.

Consider `O[C@@H]1CO[C@H]2[C@@H]1OC[C@H]2Oc1nc2nc(-c3ccc(-c4ccc(-n5cncn5)cc4)cc3)c(Cl)cc2[nH]1` [Example 180, (3R,3a,6R,6aR)-6-[[6-chloro-5-[4-[4-(1,2,4-triazol-1-yl)phenyl]phenyl]-1H-imidazo[4,5-b]pyridin-2-yl]oxy]-2,3,3a,5,6,6a-hexahdrofuro[3,2-b]furan-3-ol], for which, in assay [4], the Emax is 350% and the pEC50 was 9.52.

As for `CC(C)(O)Cc1cnn(-c2ccc(-c3ccc(-c4nc5nc(O[C@@H]6CO[C@H]7[C@@H]6OC[C@H]7O)[nH]c5cc4Cl)cc3)cc2)c1` [Example 190], in assay [4], the Emax came out at 374% and the pEC50 is 9.00.

Turning to `CC(C)(O)Cc1cnn(-c2ccc(-c3ccc(-c4nc5nc(O[C@@H]6CO[C@H]7[C@@H]6OC[C@H]7O)[nH]c5cc4Cl)cc3)nc2)c1` [Example 202, (3R,3aR,6R,6aR)-6-[[6-chloro-5-[4-[5-[4-(2-hydroxy-2-methyl-propyl)pyrazol-1-yl]-2-pyridyl]phenyl]-1H-imidazo[4,5-b]pyridin-2-yl]oxy]-2,3,3a,5,6,6a-hexahydrofuro[3,2-b]furan-3-ol], in assay [4], the Emax came out at 372% and the pEC50 is 9.00.

For the molecule `O[C@@H]1CO[C@@H]2C(Oc3nc4nc(-c5ccc(-c6ccc(-c7nnn[nH]7)cc6)cc5)c(Cl)cc4[nH]3)CO[C@H]12` (stereo partly drawn) [Example 207, (3R,3aR,6R,6R)-6-[[6-chloro-5-[4-[4-(1H-tetrazol-5-yl)phenyl]phenyl]-1H-imidazo[4,5-b]pyridin-2-yl]oxy]-2,3,3a,5,6,6a-hexahydrofuro[3,2-b]furan-3-ol], in assay [4], the Emax came out at 289% and the negative-log EC50 (pEC50) is 9.30.

Turning to `O[C@@H]1CO[C@H]2[C@@H]1OC[C@H]2Oc1nc2nc(-c3ccc(C#CC4CCNCC4)cc3)c(Cl)cc2[nH]1` [Example 214, (3R,3aR,6R,6aR)-6-((6-chloro-5-(4-(piperidin-4-ylethynyl)phenyl)-1H-imidazo[4,5-b]pyridin-2-yl)oxy)hexahydrofuro[3,2-b]furan-3-ol], in assay [4], the Emax turned out to be 386% and the pEC50 was 8.22.
